As usually defined, the MIC is the least concentration at which growth counts as inhibited.

Data set [1] has as its system Candida krusei ATCC 6258. Description: In vitro antifungal broth microdilution test. The class given is cell-based. The note with it: Pichia kudriavzevii, ATCC6258, 35 °C, RPMI 1640 pH 7.0, CLSI M27-A2 (IC80 value).
Data set [2] relates to Candida glabrata 20/I. Description: In vitro antifungal broth microdilution test. The data set is classed as cell-based. The note with it: Nakaseomyces glabratus, 20/I, 35 °C, RPMI 1640 pH 7.0, CLSI M27-A2 (IC80 value).
In data set [3] the test system is Candida albicans ATCC 44859. Description: In vitro antifungal broth microdilution test. The data set is classed as cell-based. The note with it: Candida albicans, ATCC44859, 35 °C, RPMI 1640 pH 7.0, CLSI M27-A2 (IC80 value). In general terms: In broth dilution the organism is exposed to a series of concentrations in liquid medium.
Data set [4] concerns Trichophyton mentagrophytes 445. Description: In vitro antifungal broth microdilution test. The class given is cell-based.
In data set [5] the test system is Candida tropicalis 156. Description: In vitro antifungal broth microdilution test. The data set is classed as cell-based. The note with it: Candida tropicalis, 156, 35 °C, RPMI 1640 pH 7.0, CLSI M27-A2 (IC80 value).
Data set [6] concerns Absidia corymbifera 272. Description: In vitro antifungal broth microdilution test. The class given is cell-based. The note with it: Lichtheimia corymbifera, 272, 35 °C, RPMI 1640 pH 7.0, CLSI M38-A (IC50 value).
The subject of data set [7] is Trichosporon beigelii 1188. Description: In vitro antifungal broth microdilution test. The class given is cell-based. The note with it: Trichosporon beigelii, 1188, 35 °C, RPMI 1640 pH 7.0, CLSI M27-A2 (IC80 value), read-out: MIC TB. As for the experimental part:
Fluconazole (FLU) was used as the standard of a clinically used antimycotic drug. The procedure was performed with twofold dilution of the compounds in RPMI 1640 (Sevapharma a.s., Prague, Czech Republic) buffered to pH 7.0 with 0.165 mol of 3-morpholino-propane-1-sulfonic acid (MOPS, Sigma, Germany). The final concentrations of the compounds ranged from 500 to 0.975 μmol/L. Drug–free controls were included. The MIC determination was performed according to the CLSI (formerly NCCLS) reference protocol M27-A2 for yeasts (IC80 value) and M38-A for moulds (IC50 value). […] The values of MICs were determined after 24 and 48 h of static incubation at 35 °C. For T. mentagrophytes, the final MICs were determined after 72 and 120 h of incubation.

Data set [8] has as its system Aspergillus fumigatus 231. Description: In vitro antifungal broth microdilution test. As to conditions: Aspergillus fumigatus, 231, 35 °C, RPMI 1640 pH 7.0, CLSI M38-A (IC50 value). The class given is cell-based.
A short description of data set [9]: Lipophilicity determination by RP-HPLC (capacity factor k / log k). The note with it: C18 column, isocratic MeOH 55.0% / H2O 45.0%. The data set is classed as physicochemical. From the text:
A Waters Alliance 2695 XE HPLC separation module and Waters Photodiode Array Detector 2996 (Waters Corp., Milford, MA, USA) were used. A Symmetry® C18 5 μm, 4.6 × 250 mm, Part No. WAT054275, (Waters Corp., Milford, MA, USA) chromatographic column was used. The HPLC separation process was monitored by Millennium32® Chromatography Manager Software, Waters 2004 (Waters Corp., Milford, MA, USA). A mixture of MeOH p.a. (55.0%) and H2O-HPLC– Mili-Q Grade (45.0%) was used as a mobile phase. The total flow of the column was 0.9 mL/min, injection 30 μL, column temperature 30 °C and sample temperature 10 °C. The detection wavelength 210 nm was chosen. The KI methanolic solution was used for the dead time (tD) determination. Retention times (tR) were measured in minutes.
The capacity factors k were calculated using the Millennium32® Chromatography Manager Software according to formula k = (tR - tD)/tD, where tR is the retention time of the solute, whereas tD denotes the dead time obtained via an unretained analyte. Log k, calculated from the capacity factor k, is used as the lipophilicity index converted to log P scale.

Setting [10] is: Trichophyton mentagrophytes, 445, 120 h, pH 7.
The mark [11] stands for this setting: Trichophyton mentagrophytes, 445, 72h, RPMI 1640 pH 7.0, CLSI M38-A (IC50 value).

The structures appear in SMILES notation. In brackets after ≈: the same amount, converted by molar mass. Where two headings read alike, the source gives them in different places. A value given as a limit tells only on which side of the number the result lay.

For `OC(Cn1cncn1)(Cn1cncn1)c1ccc(F)cc1F` [FLU, fluconazole, reference compound], the MIC in data set [1] (24h) was found to be 3.91 µM (≈ 1.2 µg/mL); in [1] (48h), 15.6 µM (≈ 4.78 µg/mL); in data set [2] (24h), 0.98 µM (≈ 0.3 µg/mL); in data set [2] (48h) it was 3.91 µM (≈ 1.2 µg/mL); in data set [3] (24h), 0.06 µM (≈ 0.0184 µg/mL); in [3] (48h), 0.12 µM (≈ 0.0368 µg/mL). For the same molecule, the MIC in data set [4] (setting [10]) is 3.91 µM (≈ 1.2 µg/mL); in [4] (setting [11]), 1.95 µM (≈ 0.597 µg/mL); in data set [5] (24h) it was 0.12 µM (≈ 0.0368 µg/mL); in data set [5] (48h), more than 125 µM; in data set [6] (24h), more than 125 µM; in [6] (48h), more than 125 µM. For the same molecule, the MIC in data set [7] (24h) was 0.24 µM (≈ 0.0735 µg/mL); in data set [7] (48h), 0.48 µM (≈ 0.147 µg/mL); in data set [8] (24h), more than 125 µM; in data set [8] (48h) it was more than 125 µM.

In turn, `Oc1ccccc1C=Cc1ccc2c(Cl)cc(Cl)c(O)c2n1` [Compound 9, 5,7-Dichloro-2-[2-(2-hydroxyphenyl)vinyl]quinolin-8-ol] displayed a log k in data set [9] of 1.5854.

With `O=[N+]([O-])c1cc(S(=O)(=O)O)c2cccnc2c1O` [Compound 2, 8-Hydroxy-7-nitroquinoline-5-sulfonic acid], the minimum inhibitory concentration (MIC) in data set [1] (24h), in data set [1] (48h), in [2] (24h), in data set [2] (48h), in data set [3] (24h) and in data set [3] (48h) was more than 250 µM each time. Further, the minimum inhibitory concentration (MIC) in [4] (setting [10]), in data set [4] (setting [11]), in [5] (24h), in data set [5] (48h), in [6] (24h) and in [6] (48h) was more than 250 µM in each case. In addition, the MIC in data set [7] (24h), in data set [7] (48h), in data set [8] (24h) and in data set [8] (48h) was more than 250 µM each time. In data set [9], this molecule came in with a log k of 0.1479.

On to `O=S(=O)(c1ccc(O)c2ncccc12)N1CCOCC1` [Compound 4, 5-(Morpholine-4-sulfonyl)quinolin-8-ol], for which the MIC in [1] (24h) was 250 µM (≈ 73.6 µg/mL); in data set [1] (48h) it was 500 µM (≈ 147 µg/mL); in [2] (24h), 500 µM (≈ 147 µg/mL); in data set [2] (48h), 500 µM (≈ 147 µg/mL); in data set [3] (24h), 125 µM (≈ 36.8 µg/mL); in data set [3] (48h) it was 500 µM (≈ 147 µg/mL). For the same molecule, the MIC in data set [4] (setting [10]) amounted to 250 µM (≈ 73.6 µg/mL); in data set [4] (setting [11]) it was 250 µM (≈ 73.6 µg/mL); in data set [5] (24h), 500 µM (≈ 147 µg/mL); in [5] (48h), 500 µM (≈ 147 µg/mL); in [6] (24h), 125 µM (≈ 36.8 µg/mL); in [6] (48h), 250 µM (≈ 73.6 µg/mL). Also, the MIC in data set [7] (24h), in data set [7] (48h), in [8] (24h) and in data set [8] (48h) was 500 µM (≈ 147 µg/mL) in each case. This molecule displayed a log k in data set [9] of 0.3293.

(Values after PMC6256987, “Investigating the Activity Spectrum for Ring-Substituted 8-Hydroxyquinolines” (Molecules, 2010).)
